Data as given in patent US20240150340A1, “CDK Inhibitors And Their Use As Pharmaceuticals” (Prelude Therapeutics Incorporated, priority 2022, published 2024).

What was measured:
CDK2/Cyclin E2 = target: T1, CDK2/Cyclin E2 (Homo sapiens, UniProt P24941); assay: CDK2/CyclinE2 Enzymatic Activity Assay (TR-FRET); format: biochemical; conditions: ATP 1 mM final, read-out: CDK2_E1 IC50
T1 construct: Recombinant protein complex CDK2/Cyclin E2, expressed from insect cell, was purchased from ProQinase
Method: CDK2/CyclinE2 Enzymatic Activity Assay
The inhibitory activity of compounds was evaluated in vitro using TR-FRET assay with white 384-well low volume microplate (Greiner Bio-One). CDK2/Cyclin E2 catalyzed phosphorylation of peptide in the presence and absence of compounds was measured and used in IC50 determination. Recombinant protein complex CDK2/Cyclin E2, expressed from insect cell, was purchased from ProQinase. Testing compounds were dissolved in DMSO at 1 mM and tested in 9-dose IC50 mode. The reaction mixture was prepared by mixing CDK2/CyclinE2 (1 nM final), ULight-4E-BP1 (50 nM final, Perkinelmer, TRF0128-D), and ATP (1 mM final) in assay buffer (20 mM of HEPES pH 7.4, 1 mM of EGTA, 0.05% BSA, 0.005% Tween 20, and 1 mM TCEP). The compound of interest in DMSO was added to each well in 3-fold serial dilution by dispenser (TECAN D300E) to make a 9.9 μL of reaction mixture. After 20 minutes preincubation at room temperature, 0.1 μL MgCl2 (10 mM final) was added to initiate the reaction. Following a 45 minute incubation at 37° C., the reaction was stopped by addition of 2 μL of quenching buffer consisting of Lance detection buffer (Perkinelmer CR97-100C), LANCE Ultra Europium-anti-P-4E-BP1 (Perkinelmer, TRF0216-D), EDTA, and incubated at room temperature for additional 60 minutes in the dark. The reaction signal was measured by Envision multimode plate reader (PerkinElmer, 2102-0010). IC50 values were determined by fitting the data to the standard 4 parameters with Hill Slope using GraphPad Prism software.

OVCAR3 p-RB = assay: pRB ICW Assay in OVCAR3 Cells; format: cell-based; conditions: Homo sapiens, OVCAR-3, incubated with compound for 2 hours
Method: pRB ICW Assay in OVCAR3 Cells
OVCAR3 cells were maintained in RPMI (Corning, Catalog #: 10-040-CV) supplemented with 10% v/v FBS (Gibco, Catalog #: 26140-079), 1% v/v Penicillin Streptomycin (Gibco, Catalog #15140-122.) OVCAR3 cells grown at log phase were trypsinized, counted, and resuspended in fresh medium to reach a final density of 6.7e4 cells/mL and 75 μL of culture were dispensed into a 384-well plate (Falcon, cat #353962) using a Multidrop Combi dispenser (Thermo Scientific). The next day, compounds were dispensed as a 9-point, ½ log serial dilution using a Tecan digital dispenser (D300e), and cells were incubated with compound for 2 hours in a humidified incubator at 37° C. A reference compound at a final concentration of 10 μM was used as a control for maximum inhibition. Each compound was tested in duplicate for each experiment. At the end of the incubation, […] (Electron Microscopy, cat #15710) was slowly added to each well and the plate was incubated at room temperature (RT) for 30 minutes to fix cells. Cells were then permeabilized by incubating with 50 μL/well of wash buffer (1×PBS with 0.1% Triton X-100) 5×5 minutes, followed by 1 hour blocking with 30 μL/well of Odyssey blocking buffer (Li-COR, cat #927-40000), at RT. Anti-phosphor RB antibody (Cell signaling 8516S) was diluted 1:1000 in Odyssey blocking buffer and 20 μL was added to all wells and incubated overnight in 4° C. with gently rocking. The next day, cells were washed 5×5 min with 50 μL/well of wash buffer, followed with 1 hour incubation with secondary antibody and DRAQ5 diluted in Odyssey blocking buffer (1:500 dilution for secondary antibody and 1:2000 dilution for DRAQ5), 5×5 min washes, and one last wash with water. Plates were dried in 37° C. oven for 5 minutes and scanned using Li-COR Odyssey CLx imaging system to acquire intensities at 700 and 800 nm channels.

| Compound | IC50 (CDK2/Cyclin E2) [nM] | IC50 (OVCAR3 p-RB) [nM] |
| --- | --- | --- |
| CC(C)(O)c1cnc(-c2nc(NC3CCN(S(C)(=O)=O)CC3)ncc2C(F)(F)F)s1 [Example 95, 2-(2-(2-((1-(methylsulfonyl)piperidin-4-yl)amino)-5-(trifluoromethyl)pyrimidin-4-yl)thiazol-5-yl)propan-2-ol] | ≤ 100 | 100 to 500 |
| CC(C)(O)c1cnc(-c2nc(N[C@H]3CCN(S(C)(=O)=O)C[C@H]3F)ncc2C(F)(F)F)s1 [Example 96, 2-(2-(2-(((3R,4S)-3-fluoro-1-(methylsulfonyl)piperidin-4-yl)amino)-5-(trifluoromethyl)pyrimidin-4-yl)thiazol-5-yl)propan-2-ol] | ≤ 100 | ≤ 100 |
| CC(C)(O)c1cnc(-c2nc(N[C@@H]3CCN(S(C)(=O)=O)C[C@H]3F)ncc2C(F)(F)F)s1 [Example 97, 2-(2-(2-(((3R,4R)-3-fluoro-1-(methylsulfonyl)piperidin-4-yl)amino)-5-(trifluoromethyl)pyrimidin-4-yl)thiazol-5-yl)propan-2-ol] | ≤ 100 | ≤ 100 |
| Cn1cc(S(=O)(=O)N2CC[C@@H](Nc3ncc(C(F)(F)F)c(-c4ncc(C(C)(C)O)s4)n3)[C@H](F)C2)cn1 [Example 101, 2-(2-(2-(((3R,4R)-3-fluoro-1-((1-methyl-1H-pyrazol-4-yl)sulfonyl)piperidin-4-yl)amino)-5-(trifluoromethyl)pyrimidin-4-yl)thiazol-5-yl)propan-2-ol] | ≤ 100 | ≤ 100 |
| C[C@@H]1CN(S(=O)(=O)c2cnn(C)c2)CC[C@@H]1Nc1ncc(C(F)(F)F)c(-c2ncc(C(C)(O)C(F)(F)F)s2)n1 (stereo partly drawn) [Example 105, 1,1,1-trifluoro-2-(2-(2-(((3R,4S)-3-methyl-1-((1-methyl-1H-pyrazol-4-yl)sulfonyl)piperidin-4-yl)amino)-5-(trifluoromethyl)pyrimidin-4-yl)thiazol-5-yl)propan-2-ol] | ≤ 100 | ≤ 100 |
| Cn1cc(S(=O)(=O)N2CC[C@@H](Nc3ncc(C(F)(F)F)c(-c4ncc(CC(C)(C)O)s4)n3)[C@H](F)C2)cn1 [Example 110, 1-(2-(2-(((3R,4R)-3-fluoro-1-((1-methyl-1H-pyrazol-4-yl)sulfonyl)piperidin-4-yl)amino)-5-(trifluoromethyl)pyrimidin-4-yl)thiazol-5-yl)-2-methylpropan-2-ol] | ≤ 100 | 100 to 500 |
| CC(O)c1cnc(-c2nc(NC3CCN(S(C)(=O)=O)CC3)ncc2C(F)(F)F)s1 (stereo not shown) [Example 112, 1-(2-(2-((1-(methylsulfonyl)piperidin-4-yl)amino)-5-(trifluoromethyl)pyrimidin-4-yl)thiazol-5-yl)ethan-1-ol] | ≤ 100 | ≤ 100 |
| Cn1cc(S(=O)(=O)N2CCC(Nc3ncc(C(F)(F)F)c(-c4cc(C#N)c(C(C)(C)O)s4)n3)CC2)cn1 [Example 117, 2-(2-hydroxypropan-2-yl)-5-(2-((1-((1-methyl-1H-pyrazol-4-yl)sulfonyl)piperidin-4-yl)amino)-5-(trifluoromethyl)pyrimidin-4-yl)thiophene-3-carbonitrile] | ≤ 100 | ≤ 100 |
| C[C@@H]1CN(S(=O)(=O)c2cnn(C)c2)CC[C@@H]1Nc1ncc(C(F)(F)F)c(-c2cc(C#N)c(C(C)(C)O)s2)n1 [Example 118, 2-(2-hydroxypropan-2-yl)-5-(2-(((3R,4S)-3-methyl-1-((1-methyl-1H-pyrazol-4-yl)sulfonyl)piperidin-4-yl)amino)-5-(trifluoromethyl)pyrimidin-4-yl)thiophene-3-carbonitrile] | ≤ 100 | 100 to 500 |
| Cn1cc(S(=O)(=O)N2CC[C@@H](Nc3ncc(C(F)(F)F)c(-c4cc(C#N)c(C(C)(C)O)s4)n3)[C@H](F)C2)cn1 [Example 119, 5-(2-(((3R,4R)-3-fluoro-1-((1-methyl-1H-pyrazol-4-yl)sulfonyl)piperidin-4-yl)amino)-5-(trifluoromethyl)pyrimidin-4-yl)-2-(2-hydroxypropan-2-yl)thiophene-3-carbonitrile] | ≤ 100 | ≤ 100 |
| Cc1cnc(N[C@H]2CCN(S(C)(=O)=O)C[C@H]2F)nc1-c1ncc(CC(C)(C)O)s1 [Example 155, 1-(2-(2-(((3R,4S)-3-fluoro-1-(methylsulfonyl)piperidin-4-yl)amino)-5-methylpyrimidin-4-yl)thiazol-5-yl)-2-methylpropan-2-ol] | – | ≤ 100 |

Further lines, results first:

| IC50 (CDK2/Cyclin E2) [nM] | IC50 (OVCAR3 p-RB) [nM] | Compound |
| --- | --- | --- |
| ≤ 100 | ≤ 100 | Cn1cnc(S(=O)(=O)N2CCC(Nc3ncc(C(F)(F)F)c(-c4ncc(C(C)(C)O)s4)n3)CC2)c1 [Example 98, 2-(2-(2-((1-((1-methyl-1H-imidazol-4-yl)sulfonyl)piperidin-4-yl)amino)-5-(trifluoromethyl)pyrimidin-4-yl)thiazol-5-yl)propan-2-ol] |
| ≤ 100 | 100 to 500 | Cn1cc(S(=O)(=O)N2CCC(Nc3ncc(C(F)(F)F)c(-c4ncc(C(C)(C)O)s4)n3)CC2)cn1 [Example 99, 2-(2-(2-((1-((1-methyl-1H-pyrazol-4-yl)sulfonyl)piperidin-4-yl)amino)-5-(trifluoromethyl)pyrimidin-4-yl)thiazol-5-yl)propan-2-ol] |
| ≤ 100 | ≤ 100 | CC(O)(c1cnc(-c2nc(NC3CCN(S(C)(=O)=O)CC3)ncc2C(F)(F)F)s1)C(F)F (stereo not shown) [Example 102, 1,1-difluoro-2-(2-(2-((1-(methylsulfonyl)piperidin-4-yl)amino)-5-(trifluoromethyl)pyrimidin-4-yl)thiazol-5-yl)propan-2-ol] |
| ≤ 100 | 100 to 500 | CS(=O)(=O)N1CCC(Nc2ncc(C(F)(F)F)c(-c3ncc(C4(O)CCC4)s3)n2)CC1 [Example 106, 1-(2-(2-((1-(methylsulfonyl)piperidin-4-yl)amino)-5-(trifluoromethyl)pyrimidin-4-yl)thiazol-5-yl)cyclobutan-1-ol] |
| ≤ 100 | ≤ 100 | C[C@@H]1CN(S(=O)(=O)c2cnn(C)c2)CC[C@@H]1Nc1ncc(C(F)(F)F)c(-c2ncc(CC(C)(C)O)s2)n1 [Example 111, 2-methyl-1-(2-(2-(((3R,4S)-3-methyl-1-((1-methyl-1H-pyrazol-4-yl)sulfonyl)piperidin-4-yl)amino)-5-(trifluoromethyl)pyrimidin-4-yl)thiazol-5-yl)propan-2-ol] |
| ≤ 100 | ≤ 100 | CS(=O)(=O)N1CCC(Nc2ncc(C(F)(F)F)c(-c3ncc(C(O)C(F)(F)F)s3)n2)CC1 (stereo not shown) [Example 113, 2,2,2-trifluoro-1-(2-(2-((1-(methylsulfonyl)piperidin-4-yl)amino)-5-(trifluoromethyl)pyrimidin-4-yl)thiazol-5-yl)ethan-1-ol] |
| ≤ 100 | ≤ 100 | CC(O)c1cnc(-c2nc(N[C@@H]3CCN(S(=O)(=O)c4cnn(C)c4)C[C@H]3F)ncc2C(F)(F)F)s1 (stereo partly drawn) [Example 115, 1-(2-(2-(((3R,4R)-3-fluoro-1-((1-methyl-1H-pyrazol-4-yl)sulfonyl)piperidin-4-yl)amino)-5-(trifluoromethyl)pyrimidin-4-yl)thiazol-5-yl)ethan-1-ol] |
| ≤ 100 | ≤ 100 | CC(C)(O)c1sc(-c2nc(N[C@@H]3CCN(S(C)(=O)=O)C[C@H]3F)ncc2C(F)(F)F)cc1C#N [Example 116, 5-(2-(((3R,4R)-3-fluoro-1-(methylsulfonyl)piperidin-4-yl)amino)-5-(trifluoromethyl)pyrimidin-4-yl)-2-(2-hydroxypropan-2-yl)thiophene-3-carbonitrile] |
